The source of these data is patent US20230414775A1, “TUBULYSINS AND PROTEIN-TUBULYSIN CONJUGATES” (priority 2021, published 2023).

Like-named read-outs stand apart in the source and are kept apart here.

A short description of data set [1]: Plasma stability test of payloads (LC-MS/MS, half-life). The settings on record: human plasma, 37° C., time points 0-24 h, read-out: Human plasma stability T1/2 (converted). In kind it is in vitro ADME. On the procedure: Stock solutions were prepared at 10 mM in DMSO for the test compound. Aliquots of the stock solutions were diluted to 0.02 mM in 0.05 M sodium phosphate buffer containing 0.5% BSA as the dosing solution. Then 10 μL of the dosing solutions were dosed into 90 μL of pre-warmed plasma (37° C.) in singlet (n=1) in 96-well assay plates to reach a final test concentration of 2 μM. The plates were kept in a 37° C. water bath for the duration of the experiment. At each time point (0, 0.25, 1, 8, 24 h), 400 μL of acetonitrile (containing internal standard) was added into corresponding wells of the assay plates. After the final time point was quenched, the assay plates were shaken on a vibrator (IKA, MTS 2/4) for 10 min (600 rpm/min) and then centrifuged at 5594 g for 15 min (Thermo Multifuge×3R). Aliquots of the supernatant were taken and analyzed by LC-MS/MS. The peak area response ratio to internal standard (PARR) of the compounds at 0.25, 1, 8, and 24 h was compared to the PARR at time zero to determine the percent of test compound remaining at each time point. Half-lives (ti/2) were calculated using Excel software, fitting to a single-phase exponential decay equation.

The test system of the next data set is HCT15 cells. The data set can be described thus: HCT15 anti-proliferation / cell killing assay (CellTiter-Glo), with or without verapamil. The format is cell-based, human. The settings on record: Homo sapiens. On the procedure:
The cell line used in the anti-proliferation assays was HCT15, a human colon, colorectal carcinoma cell line. The HCT15 cells were grown in RPMI medium 1640+10% FBS. To run the assay, the cells (40 μL, 400 cells) were added to each well in a 384-well plate and incubated for twenty-four hours at 37° C. with 5% CO2. One hour before adding compounds, freshly dilute Verapamil to 0.2 mg/ml in ddH2O. Add 1 μL/well diluted Verapamil to Verapamil treatment wells and 1 μL/well ddH2O to the non-Verapamil treatment wells. Return plates to the incubator at 37° C. with 5% CO2. Then the cells were treated with test compounds at various concentrations using HPD300, and then normalize the DMSO to 0.5%. The control wells contained cells and the medium but lack the test compounds. The plates were incubated for 120 hours at 37° C. with 5% CO2. CTG reagent was then added to the wells (25 μL). After the plates were shaken for 10 min and then incubated for 10 min at room temperature, paste the clear bottom with white back seal and record luminescence with Envision. The inhibition % was calculated according to the following equation: inhibition %=[1−(assay-blank)/(control-blank)]×100.

In a further data set the test system is SK-BR-3 cells. The data set is described as follows: SK-BR-3 anti-proliferation assay for payloads (CellTiter-Glo). The conditions noted are these: Homo sapiens, free payload, 120-144 h, read-out: SKBR3. In kind it is cell-based. On the procedure: The cell line used in the anti-proliferation assays was SK-BR-3, a human breast, adenocarcinoma (pleural effusion) cell line. The cells were grown in McCoy's 5a Medium+10% FBS. To run the assay for payloads, the cells (40 μL, 700 cells) were added to each well in a 384-well plate and incubated for 24 hours at 37° C. with 5% CO2. Then the cells were treated with test compounds at various concentrations using HPD300, and then normalize the DMSO to 0.5%. The control wells contain cells and the medium but lack the test compounds. The plates were incubated for 120 h at 37° C. with 5% CO2. To run the assay for ADCs and some key payloads, the cells (80 μL, 1000 cells) were added to each well in a 96-well plate and incubated for twenty-four hours at 37° C. with 5% CO2. Next, the ADCs or payloads were diluted with Opti-Mem with 0.1% BSA. The cells were treated with test compounds or ADCs (20 μL) at various concentrations in appropriate cell culture medium (total volume, 0.1 mL). The final concentration of DMSO was adjusted to 0.2% and the Opti-Mem with 0.1% BSA was adjusted to 5%. The control wells contained cells and the medium but lacked the test compounds. The plates were incubated for 144 h at 37° C. with 5% CO2. CTG reagent was then added to the wells (25 μL/384-well or 100 μL/96-well). After the plates were shaken for 10 min and then incubated for 10 min at room temperature, paste the clear bottom with white back seal and record luminescence with Envision. The inhibition % was calculated according to the following equation: inhibition %=[1-(assay-blank)/(control-blank)]×100.
(In general: In ATP-based viability assays light output follows the ATP content of the culture.)

Setting [2] is: HCT15 cells, no verapamil, 120 h (5 days), read-out: HCT-15.
[3] abbreviates: HCT-15, HCT15 cells pre-treated with verapamil, 120 h, read-out: HCT-15 with verapamil.

On to `CCCCCCN(C(=O)[C@@H](NC(=O)[C@H]1CCCCN1C)[C@@H](C)CC)[C@H](C[C@@H](OC(=O)NCCO)c1nc(C(=O)N[C@@H](Cc2ccc(N)c(F)c2)CC(C)(C)C(=O)O)cs1)C(C)C` (mixture of isomers) [PA24, (S)-5-(4-amino-3-fluorophenyl)-4-(2-((3RS,6SR,8SR)-3-((RS)-sec-butyl)-5-hexyl-13-hydroxy-6-isopropyl-1-((R)-1-methylpiperidin-2-yl)-1,4,10-trioxo-9-oxa-2,5,11-triazatridecan-8-yl)thiazole-4-carboxamido)-2,2-dimethylpentanoic acid], for which the half-life at 2 μM in data set [1] is 43.4 h. Moreover, the results for the IC50 in the data set with HCT15 cells (setting [2]), with HCT15 cells (setting [3]) and with SK-BR-3 cells were 0.944 nM, 0.255 nM and 0.135 nM, respectively.

As for `CCCCCCN(C(=O)[C@@H](NC(=O)[C@H]1CCCCN1C)[C@@H](C)CC)[C@H](C[C@@H](OC(C)=O)c1nc(C(=O)N[C@@H](Cc2ccc(NCCO)cc2)CC(C)(C)C(=O)O)cs1)C(C)C` (racemic) [PA14, Rac-(R)-4-(2-((1S,3S)-1-acetoxy-3-((2R,3R)—N-hexyl-3-methyl-2-((S)-1-methylpiperidine-2-carboxamido)pentanamido)-4-methylpentyl)thiazole-4-carboxamido)-acid], the half-life at 2 μM in data set [1] was 71 h. In addition, the IC50 in the data set on HCT15 cells (setting [2]) was 0.618 nM; with HCT15 cells (setting [3]) it was 0.147 nM; with SK-BR-3 cells, 0.158 nM.

As to `CCCCCCN(C(=O)[C@@H](NC(=O)[C@H]1CCCCN1C)[C@@H](C)CC)[C@H](C[C@@H](OCC)c1nc(C(=O)N[C@@H](Cc2ccc(NCCO)cc2)CC(C)(C)C(=O)O)cs1)C(C)C` (racemic) [PA15, Rac-(R)-4-(2-((1S,3S)-1-ethoxy-3-((2R,3R)—N-hexyl-3-methyl-2-((S)-1-methylpiperidine-2-carboxamido)pentanamido)-4-methylpentyl)thiazole-4-carboxamido)-acid], in data set [1], the half-life at 2 μM is 103 h. The figures for the IC50 in the data set with HCT15 cells (setting [2]), with HCT15 cells (setting [3]) and with SK-BR-3 cells were 1.7 nM, 0.393 nM and 0.314 nM, respectively.

As for `CCCCCCN(C(=O)[C@@H](NC(=O)[C@H]1CCCCN1C)[C@@H](C)CC)[C@H](C[C@@H](OC(C)=O)c1nc(C(=O)N[C@@H](Cc2ccc(NCC(=O)O)cc2)CC(C)(C)C(=O)O)cs1)C(C)C` (racemic) [PA16, Rac-(R)-4-(2-((1S,3S)-1-acetoxy-3-((2R,3R)—N-hexyl-3-methyl-2-((S)-1-methylpiperidine-2-carboxamido)pentanamido)-4-methylpentyl)thiazole-4-carboxamido)-acid], in data set [1], the half-life at 2 μM is 327 h. Moreover, the IC50 was found to be 0.062 nM in the data set on HCT15 cells (setting [2]), 0.033 nM with HCT15 cells (setting [3]) and 0.019 nM in the data set with SK-BR-3 cells.

As to `CCCCCCN(C(=O)[C@@H](NC(=O)[C@@]1(C)CCCN1)[C@@H](C)CC)[C@H](C[C@@H](OC(C)=O)c1nc(C(=O)N[C@@H](Cc2ccc(N)c(F)c2)CC(C)(C)C(=O)O)cs1)C(C)C` [Compound P15, reference compound], the half-life at 2 μM in data set [1] is 15.1 h. The IC50 in the data set with HCT15 cells (setting [2]) is 1.66 nM; with HCT15 cells (setting [3]) it was 0.19 nM; with SK-BR-3 cells, 0.068 nM.

`CCCCCCN(C(=O)[C@@H](NC(=O)[C@H]1CCCCN1CCO)[C@@H](C)CC)[C@H](C[C@@H](OC(C)=O)c1nc(C(=O)N[C@@H](Cc2ccc(N)cc2)CC(C)(C)C(=O)O)cs1)C(C)C` [PA7, (4S)-4-({2-[(1R,3R)-1-(acetyloxy)-3-[(2S,3S)—N-hexyl-2-{[(2R)-1-(2-hydroxyethyl)piperidin-2-yl]formamido}-3-methylpentanamido]-4-methylpentyl]-1,3-thiazol-4-yl}formamido)-5-(4-aminophenyl)-2,2-dimethylpentanoic acid]: the half-life at 2 μM in data set [1] was 65.9 h. Moreover, the IC50 was 0.122 nM with HCT15 cells (setting [2]), 0.037 nM in the data set on HCT15 cells (setting [3]) and 0.038 nM with SK-BR-3 cells.

For `CCCCCCN(C(=O)[C@@H](NC(=O)[C@H]1CCCCN1CCO)[C@@H](C)CC)[C@H](C[C@@H](OCC)c1nc(C(=O)N[C@@H](Cc2ccc(N)cc2)CC(C)(C)C(=O)O)cs1)C(C)C` [PA13, (S)-5-(4-aminophenyl)-4-(2-((1R,3R)-1-ethoxy-3-((2S,3S)—N-hexyl-2-((R)-1-(2-hydroxyethyl)piperidine-2-carboxamido)-3-methylpentanamido)-4-methylpentyl)thiazole-4-carboxamido)-2,2-dimethylpentanoic acid], in data set [1], the half-life at 2 μM was 313 h. Further, the IC50 in the data set on HCT15 cells (setting [2]) was 1.31 nM; with HCT15 cells (setting [3]), 0.284 nM; with SK-BR-3 cells, 0.288 nM.
